Laboratory results published in US9549921B2, “Heterocyclic compounds and methods of use thereof for the treatment of hepatitis C” (priority 2014, dated 2017).
Read-outs that look alike come from different tables or passages of the source.

What was measured:
HCV replicon genotype 1a = test: HCV replicon assay, genotype 1a (cell ELISA for NS3/4A); assay type: cell-based, hepatitis C virus
Experimental: (§1) The HCV NS5B inhibitory activity of the present compounds may be tested using assays known in the art. The HCV NS5B polymerase inhibitors described herein have activities in a genotype 1b replicon assay as described in the Examples. The assay is performed by incubating a replicon harboring cell-line in the presence of inhibitor for a set period of time and measuring the effect of the inhibitor on HCV replicon replication either directly by quantifying replicon RNA level, or indirectly by measuring enzymatic activity of a co-encoded reporter enzyme such as luciferase or β-lactamase. By performing a series of such measurements at different inhibitor concentrations, the effective inhibitory concentration of the inhibitor (EC50 or EC90) is determined. See Jan M. Vrolijk et al., A replicons-based bioassay for the measurement of interferons in patients with chronic hepatitis C, 110 J. VIROLOGICAL METHODS 201 (2003). Such assays may also be run in an automated format for high through-put screening. See Paul Zuck et al., A cell-based β-lactamase reporter gene assay for the identification of inhibitors of hepatitis C virus replication, 334 ANALYTICAL BIOCHEMISTRY 344 (2004).
(§2) Measurement of inhibition by compounds was performed using the HCV replicon system. Several different replicons encoding different HCV genotypes or mutations were used. In addition, potency measurements were made using different formats of the replicon assay, including different ways of measurements and different plating formats. See Jan M. Vrolijk et al., A replicons-based bioassay for the measurement of interferons in patients with chronic hepatitis C, 110 J. VIROLOGICAL METHODS 201 (2003); Steven S. Carroll et al., Inhibition of Hepatitis C Virus RNA Replication by 2′-Modified Nucleoside Analogs, 278(14) J. BIOLOGICAL CHEMISTRY 11979 (2003). However, the underlying principles are common to all of these determinations, and are outlined below.
(§3) Stable neomycin phosphotransferase encoding replicons-harboring cell lines were used, so all cell lines were maintained under G418 selection prior to the assay. Potency was deteremined using a cell ELISA assay with an antibody to the replicons encoded NS3/4a protease. See Caterina Trozzi et al., In Vitro Selection and Characterization of Hepatitis C Virus Serine Protease Variants Resistant to an Active-Site Peptide Inhibitor, 77(6) J. Virol. 3669 (2003). To initiate an assay, replicon cells were plated in the presence of a dilution series of test compound in the absence of G418. Typically, the assays were performed in a 96-well plate formate for manual operation, or a 384-well plate format for automated assay. Replicon cells and compound were incubated for 96 hours. At the end of the assay, cells were washed free of media and compound, and the cells were then lysed. RNA was quantified indirectly through detection of replicon-encoded NS3/4A protein levels, through an ELISA-based assay with an antibody specific for NS3/4A. IC50 determinations were calculated as a percentage of a DMSO control by fitting the data to a four-parameter fit function and the data obtained is provided in the table below.
(§4) Data for selected compounds of the present invention was obtained for genotypes 1a and 1b using this method and is provided in the table below: […]

HCV replicon genotype 1b = test: HCV replicon assay, genotype 1b (cell ELISA for NS3/4A); assay type: cell-based, hepatitis C virus
Experimental: as §1, §2, §3, §4

[1] = Hepatitis C virus, 96 h, read-out: 1a IC50 (nM), HCV genotype 1a replicon cells, 96 hours incubation, NS3/4A ELISA readout, % of DMSO control
[2] = Hepatitis C virus, 96 h, read-out: 1b IC50 (nM), HCV genotype 1b replicon cells, 96 hours incubation, NS3/4A ELISA readout, % of DMSO control
[3] = read-out: 1a IC50, HCV genotype 1a replicon cells, 96 hours incubation, NS3/4A ELISA readout, % of DMSO control
[4] = read-out: 1b IC50, HCV genotype 1b replicon cells, 96 hours incubation, NS3/4A ELISA readout, % of DMSO control

CNC(=O)c1c(-c2ccc(F)cc2)oc2cc(N(C)S(C)(=O)=O)c([C@H]3CCCN(C(=O)c4cc5cccc(F)c5[nH]4)C3)cc12 [Example 31, (R)-5-(1-(7-fluoro-1H-indole-2-carbonyl)piperidin-3-yl)-2-(4-fluorophenyl)-N-methyl-6-(N-methylmethylsulfonamido)benzofuran-3-carboxamide]
IC50 (HCV replicon genotype 1a; [1]): 17.1 nM | IC50 (HCV replicon genotype 1b; [2]): 9.38 nM

CNC(=O)c1c(-c2ccc(F)cc2)oc2cc(N(C)S(C)(=O)=O)c([C@H]3CCCN(C(=O)c4cc5cc(F)ccc5n4C)C3)cc12 [Example 85, 5-{(3R)-1-[(5-fluoro-1-methyl-1H-indol-2-yl)carbonyl]piperidin-3-yl}-2-(4-fluorophenyl)-N-methyl-6-[methyl(methylsulfonyl)amino]-1-benzofuran-3-carboxamide]
IC50 (HCV replicon genotype 1a; [1]): 26 nM | IC50 (HCV replicon genotype 1b; [2]): 12.5 nM

CNC(=O)c1c(-c2ccc(F)cc2)oc2cc(N(C)S(C)(=O)=O)c([C@@H]3CCCN(c4nc5ccccc5[nH]4)C3)cc12 (single isomer, unassigned) [Example 46, 5-(1-(1H-benzo[d]imidazol-2-yl)piperidin-3-yl)-2-(4-fluorophenyl)-N-methyl-6-(N-methylmethylsulfonamido)benzofuran-3-carboxamide]
IC50 (HCV replicon genotype 1a; [3]): 11.9 nM | IC50 (HCV replicon genotype 1b; [4]): 9.47 nM

CNC(=O)c1c(-c2ccc(F)cc2)oc2cc(N(C)S(C)(=O)=O)c([C@@H]3CCCN(S(=O)(=O)c4ccc5ncsc5c4)C3)cc12 [Example 112, 5-[(3S)-1-(1,3-benzothiazol-6-ylsulfonyl)piperidin-3-yl]-2-(4-fluorophenyl)-N-methyl-6-[methyl(methylsulfonyl)amino]-1-benzofuran-3-carboxamide]
IC50 (HCV replicon genotype 1a; [1]): 25 nM | IC50 (HCV replicon genotype 1b; [2]): 6.79 nM

CNC(=O)c1c(-c2ccc(F)cc2)oc2cc(N(C)S(C)(=O)=O)c([C@@H]3CCCN(C(=O)c4cc5c(F)cccc5n4C)C3)cc12 (single isomer, unassigned) [Example 26, 5-(1-(4-fluoro-1-methyl-1H-indole-2-carbonyl)piperidin-3-yl)-2-(4-fluorophenyl)-N-methyl-6-(N-methylmethylsulfonamido)benzofuran-3-carboxamide]
IC50 (HCV replicon genotype 1a; [3]): 15.8 nM | IC50 (HCV replicon genotype 1b; [4]): 12.6 nM

CNC(=O)c1c(-c2ccc(F)cc2)oc2cc(N(C)S(C)(=O)=O)c([C@H]3CCCN(C(=O)c4nn(C)c(=O)c5ccccc45)C3)cc12 [Example 96, 2-(4-fluorophenyl)-N-methyl-6-[methyl(methylsulfonyl)amino]-5-{(3R)-1-[(3-methyl-4-oxo-3,4-dihydrophthalazin-1-yl)carbonyl]piperidin-3-yl}-1-benzofuran-3-carboxamide]
IC50 (HCV replicon genotype 1a; [1]): 423 nM | IC50 (HCV replicon genotype 1b; [2]): 219 nM

CNC(=O)c1c(-c2ccc(F)cc2)oc2cc(N(C)S(C)(=O)=O)c([C@@H]3CCCN(S(=O)(=O)c4ccc(C)cc4)C3)cc12 [Example 113, 2-(4-fluorophenyl)-N-methyl-6-[methyl(methylsulfonyl)amino]-5-{(3S)-1-[(4-methylphenyl)sulfonyl]piperidin-3-yl}-1-benzofuran-3-carboxamide]
IC50 (HCV replicon genotype 1a; [1]): 64.6 nM | IC50 (HCV replicon genotype 1b; [2]): 21.9 nM

CNC(=O)c1c(-c2ccc(F)cc2)oc2cc(N(C)S(C)(=O)=O)c([C@@H]3CCCN(c4nc5c(F)cccc5o4)C3)cc12 (single isomer, unassigned) [Example 49, 5-(1-(4-fluorobenzo[d]oxazol-2-yl)piperidin-3-yl)-2-(4-fluorophenyl)-N-methyl-6-(N-methylmethylsulfonamido)benzofuran-3-carboxamide]
IC50 (HCV replicon genotype 1a; [3]): 5.76 nM | IC50 (HCV replicon genotype 1b; [4]): 7.44 nM

CNC(=O)c1c(-c2ccc(F)cc2)oc2cc(N(C)S(C)(=O)=O)c([C@H]3CCCN(C(=O)C(c4ccccc4)c4ccccc4)C3)cc12 [Example 108, 5-[(3R)-1-(diphenylacetyl)piperidin-3-yl]-2-(4-fluorophenyl)-N-methyl-6-[methyl(methylsulfonyl)amino]-1-benzofuran-3-carboxamide]
IC50 (HCV replicon genotype 1a; [1]): 266 nM | IC50 (HCV replicon genotype 1b; [2]): 53 nM

CNC(=O)c1c(-c2ccc(F)cc2)oc2cc(N(C)S(C)(=O)=O)c([C@H]3CCCN(C(=O)c4cc5cccc(F)c5o4)C3)cc12 [Example 91, (R)-5-(1-(7-fluorobenzofuran-2-carbonyl)piperidin-3-yl)-2-(4-fluorophenyl)-N-methyl-6-(N-methylmethylsulfonamido)benzofuran-3-carboxamide]
IC50 (HCV replicon genotype 1a; [1]): 180 nM | IC50 (HCV replicon genotype 1b; [2]): 62.6 nM

CNC(=O)c1c(-c2ccc(F)cc2)oc2cc(N(C)S(C)(=O)=O)c([C@@H]3CCCN(c4nc5c(F)cccc5[nH]4)C3)cc12 (single isomer, unassigned) [Example 55, 5-(1-(4-fluoro-1H-benzo[d]imidazol-2-yl)piperidin-3-yl)-2-(4-fluorophenyl)-N-methyl-6-(N-methylmethylsulfonamido)benzofuran-3-carboxamide]
IC50 (HCV replicon genotype 1a; [3]): 5.65 nM | IC50 (HCV replicon genotype 1b; [4]): 3.63 nM

CNC(=O)c1c(-c2ccc(F)cc2)oc2cc(N(C)S(C)(=O)=O)c([C@H]3CCCN(S(=O)(=O)Cc4ccccc4)C3)cc12 [Example 137, 5-[(3R)-1-(benzylsulfonyl)piperidin-3-yl]-2-(4-fluorophenyl)-N-methyl-6-[methyl(methylsulfonyl)amino]-1-benzofuran-3-carboxamide]
IC50 (HCV replicon genotype 1a; [1]): 2.15 nM | IC50 (HCV replicon genotype 1b; [2]): 3.04 nM

CNC(=O)c1c(-c2ccc(F)cc2)oc2cc(N(C)S(C)(=O)=O)c([C@H]3CCCN(C(=O)c4n[nH]c5cc(Br)ccc45)C3)cc12 [Example 99, 5-{(3R)-1-[(6-bromo-1H-indazol-3-yl)carbonyl]piperidin-3-yl}-2-(4-fluorophenyl)-N-methyl-6-[methyl(methylsulfonyl)amino]-1-benzofuran-3-carboxamide]
IC50 (HCV replicon genotype 1a; [1]): 137 nM | IC50 (HCV replicon genotype 1b; [2]): 66.7 nM

CNC(=O)c1c(-c2ccc(F)cc2)oc2cc(N(C)S(C)(=O)=O)c([C@H]3CCCN(C(=O)c4nc5ncccc5[nH]4)C3)cc12 [Example 36, (R)-5-(1-(1H-imidazo[4,5-b]pyridine-2-carbonyl)piperidin-3-yl)-2-(4-fluorophenyl)-N-methyl-6-(N-methylmethylsulfonamido)benzofuran-3-carboxamide]
IC50 (HCV replicon genotype 1a; [1]): 269 nM | IC50 (HCV replicon genotype 1b; [2]): 286 nM

CNC(=O)c1c(-c2ccc(F)cc2)oc2cc(N(C)S(C)(=O)=O)c([C@H]3CCCN(C(=O)c4[nH]c5c(F)cccc5c4C)C3)cc12 [Example 38, (R)-5-(1-(7-fluoro-3-methyl-1H-indole-2-carbonyl)piperidin-3-yl)-2-(4-fluorophenyl)-N-methyl-6-(N-methylmethylsulfonamido)benzofuran-3-carboxamide]
IC50 (HCV replicon genotype 1a; [1]): 277 nM | IC50 (HCV replicon genotype 1b; [2]): 116 nM

CNC(=O)c1c(-c2ccc(F)cc2)oc2cc(N(C)S(C)(=O)=O)c([C@H]3CCCN(S(=O)(=O)c4ccccc4)C3)cc12 [Example 134, 2-(4-fluorophenyl)-N-methyl-6-[methyl(methylsulfonyl)amino]-5-[(3R)-1-(phenylsulfonyl)piperidin-3-yl]-1-benzofuran-3-carboxamide]
IC50 (HCV replicon genotype 1a; [1]): 85.9 nM | IC50 (HCV replicon genotype 1b; [2]): 58.3 nM

CNC(=O)c1c(-c2ccc(F)cc2)oc2cc(N(C)S(C)(=O)=O)c([C@@H]3CCCN(C(=O)c4cc5ncccc5[nH]4)C3)cc12 [Example 65, 2-(4-fluorophenyl)-N-methyl-6-[methyl(methylsulfonyl)amino]-5-[1-(1H-pyrrolo[3,2-b]pyridin-2-ylcarbonyl)piperidin-3-yl]-1-benzofuran-3-carboxamide]
IC50 (HCV replicon genotype 1a; [1]): 140 nM | IC50 (HCV replicon genotype 1b; [2]): 46.3 nM

CNC(=O)c1c(-c2ccc(F)cc2)oc2cc(N(C)S(C)(=O)=O)c([C@H]3CCCN(S(=O)(=O)c4ccccc4F)C3)cc12 [Example 136, 2-(4-fluorophenyl)-5-{(3R)-1-[(2-fluorophenyl)sulfonyl]piperidin-3-yl}-N-methyl-6-[methyl(methylsulfonyl)amino]-1-benzofuran-3-carboxamide]
IC50 (HCV replicon genotype 1a; [1]): 58.5 nM | IC50 (HCV replicon genotype 1b; [2]): 40.5 nM
